Assays:
mouse femoral bone = test: Inhibition of bone resorption (in vitro), mouse femoral bone; conditions: 144 h, 6 days incubation of ICR mouse femoral bone
Procedure, shortened: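 Femurs from 3–6-week male ICR mice, marrow flushed, cultured 6 days in F12 with 10% FBS under 5% CO2 with test compound (DMSO-dissolved; DMSO-only controls). Calcium released into supernatant measured by o-cresolphthalein chelate method; inhibition calculated against untreated bone, n=4 per group.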

[1] = system: thoractic aorta ring contracted with phenylephrine; test: Vasodilating action on phenylephrine-contracted thoracic aorta rings; conditions: Oryctolagus cuniculus; rabbit aortic ring, phenylephrine 10^−6 M contraction; concentration for 50% relaxation; read-out: Vasorelaxing action
Description: Male rabbits (body weight 1.9-3.0 kg) were anesthetized with pentobarbital sodium and exsanguinated, whereafter thoractic aorta was removed. An about 2 mm width aortic ring samples were prepared and hung in a Magnus bath (40 ml) filled with Krebs-Henseleit solution (37° C., NaCl 117 mM; KCl 4.7 mM; CaCl2 2.5 mM; MgSO4 1.2 mM; NaHCO3 24.8 mM; KH2PO4 1.2 mM; glucose 11.0 mM) at a load of 2 g. The Magnus bath was constantly bubbled with a mixed gas (95% O2+5% CO2 gas). The tension of the preparation was measured with an isomeric transducer (TB-611T, Nippon Koden). The preparation was contracted with phenylephrine (10^−6 M) and, after the contraction was stabilized, the test compound was added accumulatively and relaxing action was observed.

[2] = system: CEM cells (human T cell type established cell); test: Inhibition of VLA integrin activation (phorbol ester-induced adhesion of CEM cells to fibronectin); assay type: cell-based; conditions: CCRF-CEM, concentration 100 μM, PMA-induced adhesion, read-out: Adhesion induction inhibition (%)
Description: Inhibition of VLA (Very Late Antigen) Integrin Activation
As the index of the activation by VLA integrin, phorbol ester-induced adhesion of CEM cells (human T cell type established cell) to fibronectin, which is a ligand of VIA integrin, was measured. The inhibitory action on the induced adhesion by the test compound was determined by the following method.
CEM cells were washed with RPMI1640 medium containing 0.5% bovine serum albumin (BSA), 10 mM HEPES, 2 mM L-glutamin, 1 mM sodium pyruvate, 60 μg/ml kanamycin sulfate and 1.5 mg/ml sodium hydrogencarbonate (hereinafter this medium is referred to as culture solution) and suspended in this medium for use in the following experiment. To each well of a 96 well plate coated with human fibronectin were added CEM cells (5×10^4) and the test compound dissolved in the culture solution (final concentration 1-100 μM) to the amount of 100 μl, and the plate was stood at 37° C. for 1 hour. Then, PMA (phorbol 12-myristate 13-acetate, TPA; final concentration 10 ng/ml) and the test compound were added to the amount of 200 μl, and the plate was stood at 37° C. for 30 minutes. Each well was washed twice with the culture solution (200 μL) at 37° C., and the LDH (lactate dehydrogenase) activity of the cells adhered to the plate was determined, whereby the amount of the adhered cell was measured. Based on the results obtained by the above-mentioned method, the inhibitory action of the test compound on the induced adhesion was calculated by the following formula The results are shown in Table 6. Inhibition (%) of adhesion induction=(a−b)/(a−c)×100 • a=number of cells adhered with the addition of PMA • b=number of cells adhered with the addition of test compound and PMA • c=number of cells adhered without stimulation

[3] = system: normal human umberical vascular endothelial cells; test: Inhibition of angiogenesis (lumen formation in vascular endothelial cells); assay type: cell-based; conditions: 18 hours, compared with the control, number rises with inhibition of lumen formation
Description: Inhibition of Angiogenesis
The inhibition of angiogenesis was evaluated by using the inhibition of lumen formation in vascular endothelial cell as an index. To be specific, normal human umberical vascular endothelial cells (KURABO […] LTD.) were suspended in E-GMUV medium at 5.5×10^4 cells/ml and 400 μl therefrom was added on matrigel plate (EHS sarcoma-derived reconstructed basement membrane, Collaborative Biomedical Products). Then, the test compound (1 mM solution, 4 μl) was added and the cells were incubated at 37° C. under 5% CO2 gas for 18 hours. After the completion of the incubation, the number of lumen per predetermined area was counted under a microscope. Inasmuch as the number of lumen increases by the inhibition of lumen formation, the test compound was evaluated by comparison of the number of lumen with the control.

## CC(N)[C@H]1CC[C@H](C(=O)Nc2ccncc2)CC1 (single isomer, unassigned; (+)) [Compound 80.2HCl.H2O, (+)-trans-4-(1-aminoethyl)-1-(4-pyridylcarbamoyl)cyclohexane]
Mouse femoral bone
  inhibition at 100 µM: 40.9%
[1]
  IC50: 700 nM
[2]
  inhibition at 100 µM: 70%
[3]
  Number of lumen (10 μM): 174%

## CC(N)[C@H]1CC[C@H](C(=O)Nc2ccnc3[nH]ccc23)CC1 (single isomer, unassigned; (+)) [Compound 109.2HCl, (+)-trans-N-(1H-pyrrolo[2,3-b]pyridin-4-yl)-4-(1-aminoethyl)cyclohexanecarboxamide]
Mouse femoral bone
  inhibition at 100 µM: 42.6%
[1]
  IC50: 100 nM
[2]
  inhibition at 100 µM: 67%
[3]
  Number of lumen (10 μM): 153%
